Test results: the NIST ThermoML archive (doi:10.1021/acs.jced.5b00880)
Numbers after ± are expanded uncertainties.

Details: Crystal; DTA

With `O=C(O)CCCCC(=O)O` [1,6-hexanedioic acid] the Normal melting temperature was 152.4 ± 1.1 °C.
